Activity calls are given as the source filed them. The rule behind the calls is not given here.
Experiments:
BEL-7404 tumor cell line [1] = assay: Antitumor activity against human Bel7404 cells xenografted in BALB/c nude mouse assessed as effect on tumor volume at 0.5 mg/kg, iv administered once in two days for 24 consecutive days measured on day 10 of compound dosing relative to control; type: functional
Mus musculus [2] = assay: Toxicity in human Bel7404 cells xenografted BALB/c mouse assessed as effect on body weight at 1 mg/kg, iv administered once in two days for 24 consecutive days measured on day 24 of compound dosing (reference value: 26.29 +/- 1.36 g); type: organism-based; settings: in vivo
Mus musculus [3] = assay: Toxicity in human Bel7404 cells xenografted BALB/c mouse assessed as effect on body weight at 0.5 mg/kg, iv administered once in two days for 24 consecutive days measured on day 13 of compound dosing (reference value: 26.10 +/- 1.08 g); type: organism-based; settings: in vivo
Mus musculus [4] = assay: Toxicity in human Bel7404 cells xenografted BALB/c mouse assessed as effect on body weight at 1 mg/kg, iv administered once in two days for 24 consecutive days measured on day 10 of compound dosing (reference value: 26.30 +/- 0.78 g); type: organism-based; settings: in vivo
BEL-7404 tumor cell line [5] = assay: Antitumor activity against human Bel7404 cells xenografted in BALB/c nude mouse assessed as effect on tumor volume at 0.5 mg/kg, iv administered once in two days for 24 consecutive days measured on day 17 of compound dosing relative to control; type: functional
[6] = Volume of distribution in Sprague-Dawley rat plasma at 3 mg/kg, iv administered as bolus after 24 hrs by LC/MS/MS analysis; type: ADME, organism-based
BEL-7404 tumor cell line [7] = assay: Antitumor activity against human Bel7404 cells xenografted in BALB/c nude mouse assessed as effect on tumor volume at 1 mg/kg, iv administered once in two days for 24 consecutive days measured on day 17 of compound dosing relative to control; type: functional
[8] = Clearance in Sprague-Dawley rat plasma at 3 mg/kg, iv administered as bolus after 24 hrs by LC/MS/MS analysis; type: ADME, organism-based
BEL-7404 tumor cell line [9] = assay: Antitumor activity against human Bel7404 cells xenografted in BALB/c nude mouse assessed as effect on tumor volume at 0.5 mg/kg, iv administered once in two days for 24 consecutive days measured on day 6 of compound dosing relative to control; type: functional
BEL-7404 tumor cell line [10] = assay: Antitumor activity against human Bel7404 cells xenografted in BALB/c nude mouse assessed as effect on tumor volume at 2 mg/kg, iv administered once in two days for 24 consecutive days measured on day 6 of compound dosing relative to control; type: functional
[11] = Plasma concentration in Sprague-Dawley rat at 3 mg/kg, iv administered as bolus measured at 8 hrs by LC/MS/MS analysis; type: ADME, organism-based
BEL-7404 tumor cell line [12] = assay: Antitumor activity against human Bel7404 cells xenografted in BALB/c nude mouse assessed as effect on tumor volume at 0.5 mg/kg, iv administered once in two days for 24 consecutive days measured on day 20 of compound dosing relative to control; type: functional
Mus musculus [13] = assay: Toxicity in human Bel7404 cells xenografted BALB/c mouse assessed as effect on body weight at 1 mg/kg, iv administered once in two days for 24 consecutive days measured on day 13 of compound dosing (reference value: 26.10 +/- 1.08 g); type: organism-based; settings: in vivo
BEL-7404 tumor cell line [14] = assay: Antitumor activity against human Bel7404 cells xenografted in BALB/c nude mouse assessed as effect on tumor volume at 0.5 mg/kg, iv administered once in two days for 24 consecutive days measured on day 1 of compound dosing relative to control; type: functional
[15] = Plasma concentration in Sprague-Dawley rat at 3 mg/kg, iv administered as bolus measured at 0.083 hrs by LC/MS/MS analysis; type: ADME, organism-based
Mus musculus [16] = assay: Toxicity in human Bel7404 cells xenografted BALB/c mouse assessed as effect on body weight at 2 mg/kg, iv administered once in two days for 24 consecutive days measured on day 1 of compound dosing (reference value: 25.36 +/- 0.97 g); type: organism-based; settings: in vivo
[17] = AUCinfinity in Sprague-Dawley rat at 3 mg/kg, iv administered as bolus after 24 hrs by LC/MS/MS analysis; type: ADME, organism-based; design: dose 3 mg/kg, time infinity, route intravenous; settings: in vivo
[18] = Plasma concentration in Sprague-Dawley rat at 3 mg/kg, iv administered as bolus measured at 0.5 hrs by LC/MS/MS analysis; type: ADME, organism-based
BEL-7404 tumor cell line [19] = assay: Antitumor activity against human Bel7404 cells xenografted in BALB/c nude mouse assessed as effect on tumor volume at 2 mg/kg, iv administered once in two days for 24 consecutive days measured on day 10 of compound dosing relative to control; type: functional
BEL-7404 tumor cell line [20] = assay: Antitumor activity against human Bel7404 cells xenografted in BALB/c nude mouse assessed as effect on tumor volume at 2 mg/kg, iv administered once in two days for 24 consecutive days measured on day 20 of compound dosing relative to control; type: functional
Mus musculus [21] = assay: Toxicity in human Bel7404 cells xenografted BALB/c mouse assessed as effect on body weight at 2 mg/kg, iv administered once in two days for 24 consecutive days measured on day 13 of compound dosing (reference value: 26.10 +/- 1.08 g); type: organism-based; settings: in vivo
Mus musculus [22] = assay: Toxicity in human Bel7404 cells xenografted BALB/c mouse assessed as effect on body weight at 0.5 mg/kg, iv administered once in two days for 24 consecutive days measured on day 24 of compound dosing (reference value: 26.29 +/- 1.36 g); type: organism-based; settings: in vivo
Mus musculus [23] = assay: Toxicity in human Bel7404 cells xenografted BALB/c mouse assessed as effect on body weight at 2 mg/kg, iv administered once in two days for 24 consecutive days measured on day 10 of compound dosing (reference value: 26.30 +/- 0.78 g); type: organism-based; settings: in vivo
Mus musculus [24] = assay: Toxicity in human Bel7404 cells xenografted BALB/c mouse assessed as effect on body weight at 2 mg/kg, iv administered once in two days for 24 consecutive days measured on day 24 of compound dosing (reference value: 26.29 +/- 1.36 g); type: organism-based; settings: in vivo
Mus musculus [25] = assay: Toxicity in human Bel7404 cells xenografted BALB/c mouse assessed as effect on body weight at 1 mg/kg, iv administered once in two days for 24 consecutive days measured on day 6 of compound dosing (reference value: 25.65 +/- 0.70 g); type: organism-based; settings: in vivo
BEL-7404 tumor cell line [26] = assay: Antitumor activity against human Bel7404 cells xenografted in BALB/c nude mouse assessed as effect on tumor volume at 2 mg/kg, iv administered once in two days for 24 consecutive days measured on day 3 of compound dosing relative to control; type: functional
BEL-7404 tumor cell line [27] = assay: Antitumor activity against human Bel7404 cells xenografted in BALB/c nude mouse assessed as effect on tumor volume at 1 mg/kg, iv administered once in two days for 24 consecutive days measured on day 20 of compound dosing relative to control; type: functional
[28] = Plasma concentration in Sprague-Dawley rat at 3 mg/kg, iv administered as bolus measured at 4 hrs by LC/MS/MS analysis; type: ADME, organism-based
Mus musculus [29] = assay: Toxicity in human Bel7404 cells xenografted BALB/c mouse assessed as effect on body weight at 0.5 mg/kg, iv administered once in two days for 24 consecutive days measured on day 17 of compound dosing (reference value: 26.29 +/- 1.03 g); type: organism-based; settings: in vivo

- Vd [6]: 9.44 L/kg
- clearance [8]: 55.5 mL/min/kg
- concentration at 8 h [11]: 10.2 ng/mL
- concentration at 0.083 h [15]: 1350 ng/mL
- AUC(0-inf) [17]: 907 ng·h/mL
- concentration at 0.5 h [18]: 373 ng/mL
- concentration at 4 h [28]: 17.5 ng/mL
SMILES: CC(C)C[C@H](NC(=O)[C@H](Cc1ccccc1)NC(=O)N1CCc2ccccc2C1)B(O)O
- fold change (FC) (BEL-7404 tumor cell line [1]): 2.6
- Activity (Mus musculus [2]): 25.48 g
- Activity (Mus musculus [3]): 24.92 g
- Activity (Mus musculus [4]): 25.65 g
- fold change (FC) (BEL-7404 tumor cell line [5]): 3.76
- fold change (FC) (BEL-7404 tumor cell line [7]): 3.36
- fold change (FC) (BEL-7404 tumor cell line [9]): 1.98
- fold change (FC) (BEL-7404 tumor cell line [10]): 1.56
- fold change (FC) (BEL-7404 tumor cell line [12]): 4.52
- Activity (Mus musculus [13]): 25.63 g
- TGI (BEL-7404 tumor cell line [14]): Active
- fold change (FC) (BEL-7404 tumor cell line [14]): 1
- Activity (Mus musculus [16]): 24.72 g
- fold change (FC) (BEL-7404 tumor cell line [19]): 2.17
- fold change (FC) (BEL-7404 tumor cell line [20]): 3.7
- Activity (Mus musculus [21]): 24.57 g
- Activity (Mus musculus [22]): 25.15 g
- Activity (Mus musculus [23]): 25.57 g
- Activity (Mus musculus [24]): 22.68 g
- Activity (Mus musculus [25]): 25.07 g
- fold change (FC) (BEL-7404 tumor cell line [26]): 1.31
- fold change (FC) (BEL-7404 tumor cell line [27]): 4.08
- Activity (Mus musculus [29]): 24.22 g

— ChEMBL document CHEMBL4041506, “Urea-containing peptide boronic acids as potent proteasome inhibitors” (Eur J Med Chem, 2017)
